The nature of series [1]: Open field test (distance travelled, sedation). As for the experimental part:
The so-called open field test was used as a first model and the experiments were performed according to the procedure described by Haleem and Nawaz (Pain, 2017, 18:19-28). Drugs were administered 60 min (CR4056 or its vehicle, p.o.) and 30 min (morphine or its vehicle, s.c.) before the open field test. The video tracking was performed using the software Ethovision XT 13 (Noldus Information Technology), to assess the “distance travelled” as the primary parameter of sedation in this model. The test was performed every day after 4 days of repeated treatment.

A short description of series [2]: Conditioned place preference (CPP). An excerpt:
This test exploits the tendency of rats to associate the environment where they are located with the effect of drugs administered during a conditioning period. The experiment was done in a wooden apparatus consisting of two lateral chambers (30×25 cm, length×width) with different visual and tactile properties and a central “neutral” chamber, smaller than the others (12×25 cm, length×width) with total white floor and walls. The lateral chambers had different decoration of walls (points or stripes) and different type of floor (smooth or rough). These differences can be recognized by rats, and thus associated with the effect of drug or vehicle treatment. All walls were 38.5 cm high. Four days before the preconditioning phase, the light/dark cycle was inverted; all phases of experiments were performed during the dark phase. On the preconditioning day (day 1), Wistar rats (Charles River) were placed in the neutral chamber and for 15 min they were free to explore all the environments of the apparatus (van der Kam E. L. et al. Pain, 2008, 136:373-379). The time spent in each chamber was recorded with a video tracking software (Ethovision XT 13, Noldus information technology). Rats that spent over 60% of time in one of two lateral chambers were not admitted to the conditioning phase: for admitted animals, the “preferred” chamber was therefore the one where a rat spent between 50% and 60% of time during preconditioning (while the “unpreferred” chamber was the opposite one). After preconditioning, rats were randomly assigned to the experimental groups (n=16). A total of 256 rats were used in this model. During the 2 days of the conditioning phase rats were treated with the test drug(s) (day 2) or vehicle (day 3). On the first conditioning day rats were treated with the test drug(s) and were confined in the preconditioning unpreferred lateral chamber (now defined paired chamber), with no access to the other chambers of the apparatus for 40 min. On the second day of conditioning rats were treated with vehicle and were located in the opposite chamber (unpaired chamber). The control group received vehicle in both chambers. CR4056 or its vehicle were administered 40 min before conditioning, whereas morphine or its vehicle were administered immediately before conditioning. There was no treatment on the test day (day 4), when rats were placed in the neutral chamber with the possibility to explore all chambers of the apparatus. The time spent in each chamber was recorded.
CR4056 (1 mg/kg) and morphine (1 mg/kg) alone or in co-administration were administered every other day. After 8 days of conditioning the test day was held as described above.

A short description of series [3]: Inflammatory pain induced by complete Freund adjuvant (CFA). Type of series: in vivo, rat. Particulars: CR4056 1 mg/kg alone; FIG. 1, described as known effects. An excerpt:
Previous art in the scientific literature describes that imidazoline I2 receptor agonists potentiate morphine-induced analgesia.

The nature of series [4]: Opioid-induced constipation (faecal number 16 h after drug treatment). The procedure: The experiments were conducted according to the procedure described by Harada et al. (J. Pharmacol. Exp. Ther. 2017, 362: 78-84). Wistar rats were used in this model. Fecal excretion was evaluated at the end of the dark phase of the light/dark cycle, when most activities and feeding of albino rats take place. Drugs were administered 2 h before the dark phase of the light/dark cycle, and the feces were collected and counted 16 h after drug treatment. In this experimental paradigm, CR4056 1 or 6 mg/kg was administered orally 15 min before morphine or codeine. A full analgesic dose of morphine (10 mg/kg subcutaneous) or codeine (12 mg/kg oral) were administered 15 minutes after CR4056 or vehicle.

A further series can be described thus: Sedation rating scale. Type of series: in vivo, rat. From the text: In addition, sedation was scored before each rotarod testing by the sedation rating scale. […] At each time point, a score from 0 (maximum sedation) to 5 (absent sedation) was assigned to each of the 8 parameters. The sum of the scores produced the total score.
[5] abbreviates: morphine 1 mg/kg alone vs control rats.
Where [6] appears, read: single administration, Morphine 1 mg/Kg.
Where [7] appears, read: single administration, Morphine 2.5 mg/Kg.
Where [8] appears, read: single administration, Morphine 5 mg/Kg.

“Also recorded” adds a separate entry of the source. Where two headings read alike, the source gives them in different places.

Turning to `c1ccc(-c2ncc3cc(-n4ccnc4)ccc3n2)cc1` [CR4056, 2-phenyl-6-(1H-imidazol-1-yl) quinazoline], in series [1] (in vivo, po, 1 mg/kg), the “locomotor activity (sedation)” value is recorded as “not sedative per se”. The place preference result in series [2] (rat, in vivo, 6 mg/kg) was “did not induce place preference”. Besides, the analgesic effect entry in series [3] is given as “non-analgesic”.
Consider `COc1ccc2c3c1O[C@H]1[C@@H](O)C=C[C@H]4[C@@H](C2)N(C)CC[C@@]341` [Codeine, codeine], for which the “defecation (faecal number)” value in series [4] (codeine 12 mg/kg oral, 16 h after treatment, vs vehicle or CR4056) is reported as “significant decrease in defecation”.
For the compound `CN1CC[C@]23c4c5ccc(O)c4O[C@H]2[C@@H](O)C=C[C@H]3[C@H]1C5` [Morphine, morphine], the “locomotor activity (sensitization)” value in series [1] (morphine 1-2.5 mg/kg, increased locomotor activity over 4 days of repeated treatment) is reported as “modest sensitization”. In addition, the “locomotor activity (sedation)” value in series [1] (morphine s.c. at doses higher than 5 mg/kg, 4 days of repeated treatment) is reported as “clear sedative effect”; in series [1] (morphine s.c., lower doses (not higher than 5 mg/kg)) it was “not sedative”. In series [4] (morphine 10 mg/kg subcutaneous, 16 h, P<0.05 vs vehicle), the faecal number entry is recorded as “significant decrease in faecal number; also recorded: significantly reduced faecal count”. The sedation scores result is “no significant changes in performance” in the series “Sedation rating scale” (setting [5]) and “clearly sedative” in the series “Sedation rating scale” (morphine 10 mg/kg vs controls). For the same compound, the “preference for the paired chamber” value is on record as “did not induce preference” in series [2] (acute administration, morphine 1 mg/kg) and “induced preference” in series [2] (repeated conditionings, morphine 1 mg/kg alone). The “preference for the paired chamber (time paired vs unpaired)” value in series [2] (acute administration, morphine 2.5 mg/kg) is on record as “induced a statistically significant difference”; in series [2] (acute administration, morphine 5 mg/kg), “induced a statistically significant difference”. Also, the “%(P − U)” value in series [2] (repeated administrations, 8 days of conditioning, Morphine 1 mg/kg) is on record as “+14%”; in series [2] (setting [6]), 1.2%; in series [2] (setting [7]) it was 17.1%; in series [2] (setting [8]), 20.2%. Moreover, the “Δ(P − U) ± ES” value in series [2] (repeated administrations, 8 days of conditioning, Morphine 1 mg/kg, (*) paired t-test < 0.05) was 95 ± 17 (*); in series [2] (setting [6]) it was 7.6 ± 9.4. Moreover, the “Seconds in Unpaired chamber (U)” value in series [2] (repeated administrations, every other day, 8 days of conditioning, Morphine 1 mg/kg) came out at 295 s; in series [2] (setting [6]) it was 341 s; in series [2] (setting [7]) it was 291 s; in series [2] (setting [8]), 266 s. In addition, the rotarod performance entry by setting is: under setting [5], “no significant changes in performance”; (morphine 10 mg/kg vs controls) “clearly sedative”.

(Values after patent US20230000868A1, “USE OF 2-PHENYL-6-(1H-IMIDAZOL-1-YL) QUINAZOLINE FOR THE PREVENTION OF ABUSE AND OF SIDE EFFECTS OF AT LEAST ONE OPIOID” (ROTTAPHARM BIOTECH S.R.L., priority 2019, published 2023).)
